We go through four compounds from patent US20250034216A1, “STEREOSELECTIVE COVALENT LIGANDS FOR ONCOGENIC AND IMMUNOLOGICAL PROTEINS” (The Scripps Research Institute, priority 2021, published 2025).

Experiment in all cases: IA-DTB cysteine engagement
Holding throughout (format): binding
Conditions in all cases: 22Rv1 cells, 20 μM probe, 1 h, relative to DMSO

One test deals with T1, APOOL_C79 (Homo sapiens, UniProt Q6UXV4).
T1 construct: endogenous in cells; host or cells: 22Rv1
T1 sequence (Q6UXV4 28-268): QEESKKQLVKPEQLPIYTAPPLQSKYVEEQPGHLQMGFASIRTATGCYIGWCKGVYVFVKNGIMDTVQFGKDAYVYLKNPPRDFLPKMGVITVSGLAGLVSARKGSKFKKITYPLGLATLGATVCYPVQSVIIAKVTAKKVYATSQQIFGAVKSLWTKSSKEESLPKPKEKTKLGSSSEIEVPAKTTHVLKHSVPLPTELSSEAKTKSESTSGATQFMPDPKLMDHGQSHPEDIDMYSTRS
A digest of the protocol: (§1)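 Read-out is TMT-based cysteine engagement, expressed as each reporter ion intensity divided by the average of the DMSO channels. Before that, probe-treated cell lysates were capped with IA-DTB, digested, enriched on streptavidin and TMT-tagged. PSMs with DMSO summed intensity <10,000 or DMSO CV >0.5 were excluded.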

Another test has as its target T2, PRRT3_C720 (Homo sapiens, UniProt Q5FWE3).
T2 construct: endogenous in cells; host or cells: 22Rv1
A digest of the protocol: as §1

For the next test, the target named is T3, HARS2_C175 (Homo sapiens, UniProt P49590).
T3 construct: endogenous in cells; host or cells: 22Rv1
T3 sequence (P49590 34-506): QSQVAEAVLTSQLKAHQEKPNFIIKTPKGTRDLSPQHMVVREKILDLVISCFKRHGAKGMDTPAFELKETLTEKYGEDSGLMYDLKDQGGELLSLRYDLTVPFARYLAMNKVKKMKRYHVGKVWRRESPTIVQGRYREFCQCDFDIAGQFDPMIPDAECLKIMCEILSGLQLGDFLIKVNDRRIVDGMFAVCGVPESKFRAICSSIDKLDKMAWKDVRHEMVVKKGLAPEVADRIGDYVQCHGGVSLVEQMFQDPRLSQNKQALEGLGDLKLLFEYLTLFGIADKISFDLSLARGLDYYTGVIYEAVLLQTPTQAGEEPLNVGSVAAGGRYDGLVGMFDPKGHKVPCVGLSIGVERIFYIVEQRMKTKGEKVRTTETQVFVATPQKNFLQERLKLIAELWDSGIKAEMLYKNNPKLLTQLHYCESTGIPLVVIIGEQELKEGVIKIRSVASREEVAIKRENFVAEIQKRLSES
A digest of the protocol:
as §1

For another test, the target named is T4, SNX11_C181 (Homo sapiens, UniProt Q9Y5W9).
T4 construct: endogenous in cells; host or cells: 22Rv1
T4 sequence (Q9Y5W9 1-270): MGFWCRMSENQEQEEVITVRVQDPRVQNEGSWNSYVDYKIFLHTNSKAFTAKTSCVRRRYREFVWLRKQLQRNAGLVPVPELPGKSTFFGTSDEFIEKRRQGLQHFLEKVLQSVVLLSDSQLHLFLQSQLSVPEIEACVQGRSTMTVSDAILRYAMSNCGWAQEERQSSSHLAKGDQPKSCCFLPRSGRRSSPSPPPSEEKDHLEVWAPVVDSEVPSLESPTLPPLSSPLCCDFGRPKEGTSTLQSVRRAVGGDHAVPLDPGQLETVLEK
The essentials:
as §1

T2 sequence (Q5FWE3 28-981): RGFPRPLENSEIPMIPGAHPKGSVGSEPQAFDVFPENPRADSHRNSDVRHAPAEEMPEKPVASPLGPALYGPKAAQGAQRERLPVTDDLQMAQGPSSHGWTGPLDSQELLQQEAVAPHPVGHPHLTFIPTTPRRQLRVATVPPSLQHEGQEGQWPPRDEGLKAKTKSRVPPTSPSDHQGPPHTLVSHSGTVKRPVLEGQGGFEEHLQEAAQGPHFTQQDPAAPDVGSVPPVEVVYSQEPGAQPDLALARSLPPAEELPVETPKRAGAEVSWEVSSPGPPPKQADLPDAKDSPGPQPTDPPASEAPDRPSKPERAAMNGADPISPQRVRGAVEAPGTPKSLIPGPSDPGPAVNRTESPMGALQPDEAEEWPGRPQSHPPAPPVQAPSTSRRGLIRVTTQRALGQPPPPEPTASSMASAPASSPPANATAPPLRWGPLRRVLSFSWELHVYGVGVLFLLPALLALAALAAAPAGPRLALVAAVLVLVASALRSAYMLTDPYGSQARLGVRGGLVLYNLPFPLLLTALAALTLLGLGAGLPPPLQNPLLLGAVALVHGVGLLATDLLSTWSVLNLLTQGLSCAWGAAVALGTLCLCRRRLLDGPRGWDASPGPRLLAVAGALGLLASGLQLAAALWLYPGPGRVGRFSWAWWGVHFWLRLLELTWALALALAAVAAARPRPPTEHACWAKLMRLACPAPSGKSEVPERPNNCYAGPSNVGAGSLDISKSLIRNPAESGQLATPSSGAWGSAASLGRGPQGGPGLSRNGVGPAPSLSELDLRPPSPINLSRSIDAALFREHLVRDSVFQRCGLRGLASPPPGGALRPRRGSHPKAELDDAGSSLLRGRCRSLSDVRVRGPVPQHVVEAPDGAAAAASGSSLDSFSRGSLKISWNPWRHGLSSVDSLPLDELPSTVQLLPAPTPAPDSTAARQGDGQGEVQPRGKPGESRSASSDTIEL

Turning to `C=CC(=O)N1C[C@H](c2ccc(Br)cc2)[C@H]1C(=O)Nc1cccc2cccnc12` [MY-3A, (2S,3S)-1-acryloyl-3-(4-bromophenyl)-N-(quinolin-8-yl)azetidine-2-carboxamide], the “% engagement APOOL_C79” value at APOOL_C79 turned out to be 48%. In addition, the “% engagement PRRT3_C720” value on PRRT3_C720 turned out to be 45.5%. Also, the “% engagement HARS2_C175” value at HARS2_C175 was determined as 11.5%. Moreover, the “% engagement SNX11_C181” value on SNX11_C181 stood at 17%.

As to `C=CC(=O)N1C[C@@H](c2ccc(Br)cc2)[C@H]1C(=O)Nc1cccc2cccnc12` [MY-1A, (2S,3R)-1-acryloyl-3-(4-bromophenyl)-N-(quinolin-8-yl)azetidine-2-carboxamide], the “% engagement APOOL_C79” value on APOOL_C79 worked out at 54.25%. The “% engagement PRRT3_C720” value on PRRT3_C720 is 47%. Moreover, the “% engagement HARS2_C175” value at HARS2_C175 was found to be 100%. On SNX11_C181, the “% engagement SNX11_C181” value turned out to be 54.5%.

As for `C=CC(=O)N1C[C@H](c2ccc(Br)cc2)[C@@H]1C(=O)Nc1cccc2cccnc12` [MY-1B, (2R,3S)-1-acryloyl-3-(4-bromophenyl)-N-(quinolin-8-yl)azetidine-2-carboxamide], the “% engagement APOOL_C79” value at APOOL_C79 came to 73%. In addition, the “% engagement PRRT3_C720” value on PRRT3_C720 was found to be 53%. For the same compound, the “% engagement HARS2_C175” value at HARS2_C175 was determined as 67%. In addition, the “% engagement SNX11_C181” value at SNX11_C181 came out at 68.5%.

With `C=CC(=O)N1C[C@H](c2ccc(Br)cc2)[C@H]1C(=O)Nc1cccc2cccnc12` [MY-3B, (2S,3S)-1-acryloyl-3-(4-bromophenyl)-N-(quinolin-8-yl)azetidine-2-carboxamide], the “% engagement APOOL_C79” value at APOOL_C79 was determined as 69%. Further, the “% engagement PRRT3_C720” value on PRRT3_C720 is given as 71%. Further, on HARS2_C175, the “% engagement HARS2_C175” value amounted to 44.5%. For the same compound, the “% engagement SNX11_C181” value at SNX11_C181 is listed as 23%.
